In assay [1] the test system is central carbon metabolic pathways of C2C12 cells. The assay can be described thus: Mass isotopomer distribution analysis (MIDA) with [1,2-13C2]-glucose, GC/MS. In kind it is cell-based, Mus musculus mouse. How it is done:
To track and measure the substrate carbon flux through central carbon metabolic pathways of C2C12 cells when treated with PPD, mass isotopomer distribution analysis (MIDA), and metabolic modeling approaches were used.
Cells were cultured in DMEM (Biowithaker) °supplemented with 10% dialyzed heat-inactivated Fetal Bovine Serum (FBS), glucose (10 mM, 50% isotope enrichment [1,2-^13C2]-glucose), asparagine (20 mg/ml), penicillin (100 U/ml), and streptomycin (100 μg/ml). […] Initially each flask contained 10^6 cells and the incubation was carried out for 24 h. To separate medium and cell pellets, cells were centrifuged at the end of incubation (3000 × g, 5 min). Afterwards, pellet and medium were stored at −20°C for metabolite isolations.
• Glucose. A mixed DOWEX 50-DOWEX 1 ionic exchange column was used to corroborate that the original medium contained 50% of labeled glucose ([1,2-^13C2] D-glucose). First, 500 μl of medium and after 6 ml of milliQ water were passed through the column and were collected into a glass tube. Next, it was lyophilized for 12 h to eliminate the remaining liquid and the dried sample was stored. Finally, hydroxyl-amine in pyridine and acetic anhydride were used to derivatize glucose to its aldonitrile form. The ion cluster was set to m/z 328 (C1–C6, chemical ionization; Wamelink et al., [2008]). • Glycogen. Glycogen for biochemical and isotopomerics distribution determination was extracted as described in Burchert ([2007]), by direct digestion of sonicated extracts with amyloglucosidase. Measurement of glucose released from glycogen was done by using the isotopomer [U-13C6-1,2,3,4,5,6,6-D7]D-glucose (or [U-13C-D7]-glucose as shorter name) as recovery standard and internal standard quantification procedures. […] We monitored the ion cluster around the m/z 328 (C1–C6, chemical ionization; Wamelink et al., [2008]). • Lactate. […] Next, the m/z 328 was monitored (C1–C3, chemical ionization, Wamelink et al., [2008]). • Ribose from RNA. […]

Assay [2] relates to C2C12 cells. The assay can be described thus: Cell viability assay (MTT). In kind it is cell-based, Mus musculus mouse. The note with it: for IC50: read-out: IC50 (cell proliferation, MTT); for IC80: read-out: IC80 (cell proliferation, MTT). How it is done:
C2C12 cells from Mus musculus mouse were cultured in DMEM (Dulbecco's Modified Eagle's medium) with 10 mg/ml of streptomycin, 2 mM glutamine, 10,000 units/ml of penicillin and 10% heat-inactivated FCS, until subconfluence was reached. For biochemical characterization, C2C12 cells were cultured in DMEM, supplemented with 4 mM asparagine without glutamine, 10 mg/ml of streptomycin, 10,000 units/ml of penicillin and 10% heat-inactivated FCS.
The absorbance of MTT [3-(4,5-Dimethylthiazol-2-Yl)-2,5-Diphenyltetrazolium Bromide] dye staining of living cells was used to determine cell viability (Pachon et al., [2007]; Pachón et al., [2008]). Here, 3.5 × 10^3 C2C12 cells/well were cultured in 96 well-plates at different PPD concentrations (from 1 to 100 μg/ml). An ELISA plate reader (Tecan Sunrise MR20-301, TECAN, Austria) was used to determine the relative cell viability, the absorbance was determined at 550 nm. Cell survival rate relative to untreated cells after 24 h of treatment was used to estimate the concentrations that caused 50% (IC50) and 80% (IC80) of inhibition of C2C12 at that time.

Where “and” joins values, the source holds several entries; their conditions need not be identical. Equal entries are not always repeated. Where two headings read alike, the source gives them in different places.

`Nc1ccc(N)cc1` [PPD, p-phenylenediamine]: the total glycogen reservoirs in assay [1] (24 h, no significant differences between groups) is reported as 10,1 μg. For the same compound, the “Glycolitic rate = [Δlactate × m2lactate]/[Δglucose × m2glucose]” value in assay [1] (PPD at IC50, 24 h, not significantly different from control) was 28,8 ± 14%. Besides, the “ox/non-ox ratio of pentose-phosphate pathway = m1 + m3 / (m2 + m3 + 2m4)” value in assay [1] (RNA ribose, PPD at IC50, 24 h) is 2,224 ± 0,189 and 2.224 ± 0.189. For the same compound, the IC50 in assay [2] (C2C12, 24 h) is 154 µM; in assay [2] (C2C12, 48 h) it was 108 ± 8 µM; in assay [2] (C2C12, 72 h), 59 ± 1 µM. Besides, the IC80 in assay [2] (C2C12, 24 h) came out at 201 ± 8 µM; in assay [2] (C2C12, 48 h) it was 182 ± 12 µM; in assay [2] (C2C12, 72 h) it was 91 ± 7 µM.

These data come from paper PMC5338303, “Unveiling the Metabolic Changes on Muscle Cell Metabolism Underlying p-Phenylenediamine Toxicity” (Frontiers in Molecular Biosciences, 2017).
